In US5541163A, “Renin inhibiting N-(2-amino-2-oxoethyl)butanediamide derivatives” (Bio-Mega/Boehringer Ingelheim Research Inc., priority 1993, dated 1996):

Biological target: T1, human renin (Homo sapiens, UniProt P00797)
T1 construct: A human plasma pool is used as the source of both the substrate (angiotensinogen) and the enzyme (renin); from tissue; host or cells: human plasma pool
T1 sequence (P00797 67-406): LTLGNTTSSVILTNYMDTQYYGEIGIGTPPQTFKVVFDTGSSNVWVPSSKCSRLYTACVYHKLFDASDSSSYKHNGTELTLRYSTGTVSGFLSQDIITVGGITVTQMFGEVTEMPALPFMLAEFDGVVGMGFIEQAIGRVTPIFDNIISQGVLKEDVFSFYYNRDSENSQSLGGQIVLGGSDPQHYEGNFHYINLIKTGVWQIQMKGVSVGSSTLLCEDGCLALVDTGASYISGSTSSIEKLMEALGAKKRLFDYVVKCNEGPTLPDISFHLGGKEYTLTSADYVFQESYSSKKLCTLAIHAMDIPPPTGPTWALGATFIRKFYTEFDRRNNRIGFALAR
Experiment: Plasma renin assay (inhibition of human renin, angiotensin I by RIA)
Format: biochemical
Settings: human plasma pool, pH 6.0, 2 h incubation at 37°
How it was run: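 Pooled human plasma supplies both renin and angiotensinogen; inhibitor in MES/1% HSA buffer (1% DMSO final) incubated 2 h at 37° at pH 6.0. Angiotensin I generated quantified by radioimmunoassay, inhibition relative to no-inhibitor control, IC50 by nonlinear regression.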

## CC(C)CC[C@H](O)[C@H](CC1CCCCC1)NC(=O)[C@@H](CC(=O)N(CC(=O)N(C)CCc1ccccn1)CC1CCCCC1)Cc1csc(N)n1 [Compound 77, N^4-(cyclohexylmethyl)-N^4 -{2-{methyl[2-(2-pyridinyl)ethyl]-amino}-2-oxoethyl}-N^1-[1(S)-(cyclohexylmethyl)-2(S)-hydroxy-5-methylhexyl]-2(R)-[(2-amino-4-thiazolyl)methyl]butanediamide]
  IC50: 36 nM

## CC(C)C[C@H](O)[C@H](O)[C@H](CC1CCCCC1)NC(=O)[C@@H](CC(=O)N(CC(=O)N(C)C)CC1CCCCCC1)Cc1csc(N)n1 [Compound 78, N^4-(cycloheptylmethyl)-N^4-[2-(dimethylamino)-2-oxoethyl]-N^1-[1(S)-(cyclohexylmethyl)-2(R),3(S)-dihydroxy-5-methylhexyl]-2(R)-[(2-amino-4-thiazolyl)methyl]butanediamide]
  IC50: 0.6 nM

## CC(C)C[C@H](O)[C@H](O)[C@H](CC1CCCCC1)NC(=O)[C@@H](CC(=O)N(CC(=O)N(C)CCc1ccccn1)Cc1ccco1)Cc1csc(N)n1 [Compound 79, N^4-(2-furanylmethyl)-N^4 -{2-{methyl-[2-(2-pyridinyl)ethyl)amino}-2-oxoethyl}-N^1-[1(S)-(cyclohexylmethyl)-2(R),3(S)-dihydroxy-5-methylhexyl]-2(R)-[(2-amino-4-thiazolyl)-methyl]butanediamide]
  IC50: 1 nM

## CC(C)C[C@H](O)[C@H](O)[C@H](CC1CCCCC1)NC(=O)[C@@H](CC(=O)N(CC(=O)N1CCOCC1)CC1CCCC1)Cc1csc(N)n1 [Compound 80, N^4-(cyclopentylmethyl)-N^4-(2-morpholino-2-oxoethyl)-N^1-[1(S)-(cyclohexylmethyl)-2(R),3(S)-dihydroxy-5-methylhexyl]-2(R)-[(2-amino-4-thiazolyl)methyl]butanediamide]
  IC50: 2 nM

## CC(C)C[C@H](O)[C@H](O)[C@H](CC1CCCCC1)NC(=O)[C@@H](CC(=O)N(CC(=O)N(C)CCc1ccccn1)CC1CCCCCC1)Cc1csc(N)n1 [Compound 81, N^4-(cycloheptylmethyl)-N^4 -{2-{methyl[2-(2-pyridinyl)ethyl]amino}-2-oxoethyl}-N^1-[1(S)-(cyclohexylmethyl)-2(R),3(S)-dihydroxy-5-methylhexyl]-2(R)-[(2-amino-4-thiazolyl)-methyl]butanediamide]
  IC50: 1 nM

## CC(C)C[C@H](O)[C@H](O)[C@H](CC1CCCCC1)NC(=O)[C@@H](CC(=O)N(CC(=O)N(C)CCc1ccccn1)Cc1ccccc1F)Cc1csc(N)n1 [Compound 82, N^4-[(2-fluorophenyl)methyl]-N^4 -{2-{methyl[2-(2-pyridinyl)ethyl]-amino}-2-oxoethyl}-N^1-[1(S)-(cyclohexylmethyl)-2(R),3(S)-dihydroxy-5-methylhexyl]-2(R)-[(2-amino-4-thiazolyl)methyl]butanediamide]
  IC50: 3 nM

## CC(C)C[C@H](O)[C@H](O)[C@H](CC1CCCCC1)NC(=O)[C@@H](CC(=O)N(CC(=O)N(C)CCN(C)C(=O)N1CCOCC1)CC1CCCCC1)Cc1csc(N)n1 [Compound 83, N^4-(cyclohexylmethyl)-N^4 -{2-{methyl{2-[methyl(morpholinocarbonyl)-amino]ethyl}amino}-2-oxoethyl}-N^1-[1(S)-(cyclohexylmethyl)-2(R),3(S)-dihydroxy-5-methylhexyl]-2(R)-[(2-amino-4-thiazolyl)methyl]butanediamide]
  IC50: 0.35 nM

## CCC(CC)CN(CC(=O)N(C)CCc1ccccn1)C(=O)C[C@@H](Cc1csc(N)n1)C(=O)N[C@@H](CC1CCCCC1)[C@@H](O)[C@@H](O)CC(C)C [Compound 84, N^4-(2-ethylbutyl)-N^4 -{2-{methyl[2-(2-pyridinyl)ethyl]amino}-2-oxoethyl}-N^1-[1(S)-(cyclohexylmethyl)-2(R),3(S)-dihydroxy-5-methylhexyl]-2(R)-[(2-amino-4-thiazolyl)methyl]-butanediamide]
  IC50: 3 nM

## CC(C)C[C@H](O)[C@H](O)[C@H](CC1CCCCC1)NC(=O)[C@@H](CC(=O)N(CC(=O)N(C)C)CC1CCCC1)Cc1csc(N)n1 [Compound 85, N^4-(cyclopentylmethyl)-N^4-[2-(dimethylamino)-2-oxoethyl]-N^1-[1(S)-(cyclohexylmethyl)-2(R),3(S)-dihydroxy-5-methylhexyl]-2(R)-[(2-amino-4-thiazolyl)methyl]butanediamide]
  IC50: 1 nM

## CC(C)C[C@H](O)[C@H](O)[C@H](CC1CCCCC1)NC(=O)[C@@H](CC(=O)N(CC(=O)N(C)CCc1ccccn1)Cc1nccs1)Cc1csc(N)n1 [Compound 86, N^4 -{2-{methyl[2-(2-pyridinyl)ethyl]-amino}-2-oxoethyl}-N^4-(2-thiazolylmethyl)-N^1-[1(S)-(cyclohexylmethyl)-2(R),3(S)-dihydroxy-5-methylhexyl]-2(R)-[(2-amino-4-thiazolyl)methyl]-butanediamide]
  IC50: 6 nM

## CC(C)C[C@H](O)[C@H](O)[C@H](CC1CCCCC1)NC(=O)[C@@H](CC(=O)N(CCC1CCCC1)CC(=O)N(C)CCc1ccccn1)Cc1csc(N)n1 [Compound 87, N^4-(2-cyclopentylethyl)-N^4 -{2-{methyl[2-(2-pyridinyl)ethyl]amino}-2-oxoethyl}-N^1-[1(S)-(cyclohexylmethyl)-2(R),3(S)-dihydroxy-5-methylhexyl]-2(R)-[(2-amino-4-thiazolyl)-methyl]butanediamide]
  IC50: 2 nM

## Cc1ccsc1CN(CC(=O)N(C)CCc1ccccn1)C(=O)C[C@@H](Cc1csc(N)n1)C(=O)N[C@@H](CC1CCCCC1)[C@@H](O)[C@@H](O)CC(C)C [Compound 88, N^4 -{2-{methyl[2-(2-pyridinyl)ethyl]-amino}-2-oxoethyl}-N^4-[(3-methyl-2-thienyl)methyl]-N^4-[1(S)-(cyclohexylmethyl)-2(R),3(S)-dihydroxy-5-methylhexyl]-2(R)-[(2-amino-4-thiazolyl)methyl]butanediamide]
  IC50: 4 nM

## CC(C)C[C@H](O)[C@H](O)[C@H](CC1CCCCC1)NC(=O)[C@@H](CC(=O)N(CC(=O)N(C)CCc1ccccn1)Cc1ccoc1)Cc1csc(N)n1 [Compound 89, N^4-(3-furanylmethyl)-N^4 -{2-{methyl-[2-(2-pyridinyl)ethyl]amino}-2-oxoethyl}-N^1-[1(S)-(cyclohexylmethyl)-2(R),3(S)-dihydroxy-5-methylhexyl]-2(R)-[(2-amino-4-thiazolyl)-methyl]butanediamide]
  IC50: 3 nM

## CC(C)C[C@H](O)[C@H](O)[C@H](CC1CCCCC1)NC(=O)[C@@H](CC(=O)N(CC(=O)N(C)CCN1CCOCC1)CC1CCCCC1)Cc1csc(N)n1 [Compound 90, N^4-(cyclohexylmethyl)-N^4 -{2-{methyl-(2-morpholinoethyl)amino]-2-oxoethyl}-N^1-[(S)-(cyclohexylmethyl)-2(R),3(S)-dihydroxy-5-methylhexyl]-2(R)-[(2-amino-4-thiazolyl)methyl]-butanediamide]
  IC50: 0.5 nM

## CCCC(CCC)N(CC(=O)N(C)CCc1ccccn1)C(=O)C[C@@H](Cc1csc(N)n1)C(=O)N[C@@H](CC1CCCCC1)[C@@H](O)[C@@H](O)CC(C)C [Compound 91]
  IC50: 8 nM

## CCCC(CCC)CN(CC(=O)N(C)CCc1ccccn1)C(=O)C[C@@H](Cc1csc(N)n1)C(=O)N[C@@H](CC1CCCCC1)[C@@H](O)[C@@H](O)CC(C)C [Compound 92, N^4 -{2-{methyl[2-(2-pyridinyl)ethyl]-amino}-2-oxoethyl}-N^4-(2-propylpentyl)-N^1-[1(S)-(cyclohexylmethyl)-2(R),3(S)-dihydroxy-5-methylhexyl]-2(R)-[(2-amino-4-thiazolyl)methyl]-butanediamide]
  IC50: 5 nM

## CC(C)C[C@H](O)[C@H](O)[C@H](CC1CCCCC1)NC(=O)[C@@H](CC(=O)N(CC(=O)N(C)CCN1CCOCC1)[C@@H](C)c1ccccc1)Cc1csc(N)n1 [Compound 93, N^4 -{2-[methyl(2-morpholinoethyl)-amino]-2-oxoethyl}-N^4-[1(S)-phenylethyl]-N^1-[1(S)-(cyclohexylmethyl)-2(R),3(S)-dihydroxy-5-methylhexyl]-2(R)-[(2-amino-4-thiazolyl)methyl]-butanediamide]
  IC50: 2 nM
